In PMC3024946, “Hydroxyproline-containing collagen analogs trigger the release and activation of collagen-sequestered proMMP-2 by competition with prodomain-derived peptide P33-42” (Fibrogenesis & Tissue Repair, 2011):
“Also recorded” adds a separate entry of the source.

Experiments:
[1] = Triple-helix melting temperature; assay type: physicochemical; conditions: polarimetry; 5 mg/ml; 10 mM phosphate buffer, pH 7.4, 1°C/min
Description: Native human CI, CIII and CVI were purified from skin tissue and placenta. The CI single chains α1(I) and α2(I) were obtained and modified as described previously. To prepare defined fragments, 2 mg of α1(I) were dissolved in 1 ml of 70% (vol/vol) formic acid at room temperature, the tubes were flushed with nitrogen for 10 min, and then 2 mg of CB were added. After incubation for 4 h at 37°C, free CB was neutralized and the samples were lyophilized. The peptides CB3, CB6, CB7 and CB8 were separated from the reaction mixture by gel filtration followed by ion-exchange chromatography. The resulting peptides were characterized by amino acid analysis and SDS-PAGE [45, 46]. The CB peptides had the following melting temperatures: CB3, 23.9°C; CB6, 26.7°C; CB7, 28.1°C; and CB8, 28.0°C [31].
The following collagen analogs and control peptides were synthesized as described previously: (GPO)10, H-Gly-Cys-Hyp-(Gly-Pro-Hyp)10-Gly-Cys-Hyp-Gly-NH2; (GPP)10, H-Gly-Cys-Pro-(Gly-Pro-Pro)10-Gly-Cys-Pro-Gly-NH2; and GAP, H-Gly-Ala-Cys-(Gly-Ala-Pro)5-Gly-Phe-Hyp-Gly-Glu-Arg-(Gly-Ala-Pro)5-NH2. Peptides (POG)10, (PPG)10 and (POG)5 were purchased from Peptide International (Louisville, KY, USA). Spontaneous triple-helix assembly was approved by polarimetry over a 10-cm path length at 1°C/min in 10 mM phosphate buffer, pH 7.4. At 5 mg/ml, midpoints of melting curves occurred at 82.3 ± 1.4°C for (GPO)10 and at 45.8 ± 0.8°C for (GPP)10. […] Graphs were calculated from the primary data using a custom fitting program written by D.A. Slatter (Department of Biochemistry, University of Cambridge, Cambridge, UK [48]) to model different possible transitions. All collagens, CI derivatives and peptides were stored in stock solutions of 2 mg/ml in 150 mM acetic acid at -20°C.

[2] = biological target: T1, proMMP-2 / CI (Homo sapiens, UniProt P08253); test: SPR, competition of proMMP-2 binding to CI, MMP activity buffer with Ro 28-2653; conditions: for competition with proMMP-2 binding to CI: SPR, MMP activity buffer with Ro 28-2653; for Kd for binding to CI in the presence of 10-fold molar excess of competitor: proMMP-2 100 nM, MMP activity buffer, 1 μM Ro 28-2653, 25°C, mean ± SD, at least three experiments
T1 construct: prodomain-containing proMMP-2 or proMMP-9; purchased Invitek
T1 sequence (P08253 30-660 limits assumed): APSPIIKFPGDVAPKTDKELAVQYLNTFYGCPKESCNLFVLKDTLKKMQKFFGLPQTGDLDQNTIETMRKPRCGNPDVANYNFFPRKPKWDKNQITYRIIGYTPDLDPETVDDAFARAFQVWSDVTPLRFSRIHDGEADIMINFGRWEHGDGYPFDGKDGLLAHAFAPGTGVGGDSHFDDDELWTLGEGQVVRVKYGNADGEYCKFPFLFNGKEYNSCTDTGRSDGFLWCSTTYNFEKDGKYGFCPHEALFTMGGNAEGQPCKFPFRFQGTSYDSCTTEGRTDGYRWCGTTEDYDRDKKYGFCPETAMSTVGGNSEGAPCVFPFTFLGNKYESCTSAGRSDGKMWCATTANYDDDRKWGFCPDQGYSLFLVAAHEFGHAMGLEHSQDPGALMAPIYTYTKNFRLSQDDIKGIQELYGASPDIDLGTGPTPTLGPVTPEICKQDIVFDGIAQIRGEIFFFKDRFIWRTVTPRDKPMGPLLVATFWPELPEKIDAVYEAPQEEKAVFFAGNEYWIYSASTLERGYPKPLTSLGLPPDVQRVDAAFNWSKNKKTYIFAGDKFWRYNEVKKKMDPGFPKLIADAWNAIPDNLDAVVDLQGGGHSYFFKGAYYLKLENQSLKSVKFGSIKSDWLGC
Description: Sensor chip preparations and SPR measurements were performed using a BiacoreX device and the Bia-evaluation software (version 3.2; Biacore, Uppsala, Sweden). The pepsin-resistant triple-helical part of human fibrillar CI (100 μg/ml) in 10 mM acetate coupling buffer, pH 4.8, was immobilized to a dextran matrix-sensor chip at a flow rate of 5 μl/min, resulting in 5,500 resonance units from CI covalently linked via its primary amino groups. The control flow cell was prepared using the coupling buffer without CI. Surfaces were activated and blocked as described previously. Immediately after thawing, pro- and actMMP-2 and pro- and actMMP-9 were diluted to 100 to 250 nM in MMP activity buffer or in PBS and 0.05% (vol/vol) Tween 20. For SPR measurements, flow rates were 10 μl/min at 25°C, and equilibrium was typically reached after 30 to 60 s. The effects of (GPO)10, GAP, (POG)5, (GPP)10 and P33-42 on MMP-2 and MMP-9 binding to CI and their enzymatic activity were determined by adding the binding competitors to the (pro- and act)MMP-2 and MMP-9 solution in 10- to 150-fold molar excesses. Effects independent of MMP-2 and MMP-9 activity were monitored in the presence of Ro 28-2653 (1 μM) during SPR analysis. The gelatinase inhibitor Ro 28-2653 was a generous gift from H.-W. Krell (Roche, Grenzach-Wyhlen, Germany). Sensor surfaces were regenerated with 10 mM glycine, pH 2.3, for 1 min between runs, and sensor chips were used up to 25 times. Kinetic parameters were analyzed using the 1:1 binding model with drifting baseline and subtraction of the control flow cell binding from sensorgrams obtained with immobilized CI. Binding constants (Kd) were calculated from the association (ka) and dissociation rates (kd) obtained from individual binding curves at different concentrations. Individual drifts of the resonance signal were fitted locally, and χ^2 values of 0.2% to 1.0% of the maximum resonance value were considered good fits.

Row | Substance | midpoint of melting curve [1] [°C] | competition with proMMP-2 binding to CI [2] | Kd for binding to CI in the presence of 10-fold molar excess of competitor [2] [nM] | reduction of affinity / increase in Kd of binding to CI ([2]; proMMP-2, 10-fold molar excess of competitor)
1 | H-Gly-Cys-Pro-(Gly-Pro-Pro)10-Gly-Cys-Pro-Gly-NH2 [(GPP)10, Triple-helical Gly-Pro-Pro (GPP)10, devoid of Hyp] | 45.8 ± 0.8 | much less efficient in competing with proMMP-2 binding to CI than the nonhelical (POG)5 | 42.1 ± 39.1 | about a sixfold increase
2 | H-Gly-Cys-Hyp-(Gly-Pro-Hyp)10-Gly-Cys-Hyp-Gly-NH2 [(GPO)10, triple-helical Hyp-containing collagen analog] | 82.3 ± 1.4 | comparable to that of (POG)5; also recorded: effectively compete proMMP-2 binding to CI | 155.5 ± 50.2 | –
